Source: patent publication US20090036437A1, “PHARMACEUTICAL COMPOSITION COMPRISING PHENOXAZINIUM COMPOUND AS AN ACTIVE INGREDIENT” (priority 2005, published 2009)

Columns and labels:
[1] = in vitro growth-inhibiting assay of rat L6 cells; type: cell-based; conditions: rat; Table 8; read-out: 50% growth-inhibiting concentration (nM) cytotoxicity L6
Protocol: Rat L6 cell (rat skeletal myoblast cell) was cultured in RPMI-1640 culture medium supplemented with 1% of L-glutamine (200 mM) and fetal calf serum (10%) under 5% CO2 concentration at 37° C. A test sample was prepared by dissolving the test compounds according to the present invention and a positive control drug in DMSO to a predetermined concentration. After pre-culture had been finished, the culture medium containing the cells in a logarithmic phase was placed into each well of a 96-well culture plate, and the test sample comprising the predetermined amount of the test compound, and DMSO without the test compound were added to the wells in duplicate.
(§1) After incubation of the culture plate for 72 hours in an incubator, a growth-inhibiting activity was assayed as follows. Alamar Blue aqueous solution (10 μL) was added to each well followed by a further two-hour culture. The culture plate was then attached to a fluorescence micro titer plate reader (Spectramax Gemeni XS; U.S. Molecular Device Co.), and the intensity of fluorescence at 588 nm was detected with an excitation wave length of 536 nm. A residual ratio of L6 cells was calculated with respect to a group treated with the test sample and a control group. A growth-inhibiting ratio for L6 cells was then calculated from the resulting residual ratio in accordance with the following equation to determine 50% growth-inhibiting concentration (EC50).
Growth-inhibiting ratio (%)=[1−(C−A)/(B−A)]×100 • A: Initial number of cells; • B: Number of the cells in the control after 3 days; and • C: Number of the cells treated with the test sample after 3 days Determination of Pharmaceutical effect for Chloroquine-Resistant Malaria

[2] = test system: Trypanosoma brucei rhodensiense (STIB 900 strain); test: in vitro growth-inhibiting screening assay, protozoa of African trypanosomiasis; type: cell-based
Protocol: This test was done using a trypomastigote of the protozoa of Trypanosoma brucei rhodensiense (STIB 900 strain) ranging in blood stream. MEM medium sterilized by filtration was supplemented with 25 mM of N-2-hydroxyethylpiperazine-2-ethanesulfonic acid (HEPES), 1 g/L of glucose, 1% of MEM non-essential amino acids, 0.2 mM of 2-mercaptoethanol, 2 mM of sodium pyruvate, 1 mM of hypoxathine and 15% of heat-treated horse serum. The protozoa were cultured under CO2 concentration of 5%, at 37° C.
A test sample was prepared by dissolving the test compounds according to the present invention and a positive control drug (Melarsoprol) in DMSO to a predetermined concentration. Culture medium containing the protozoa of 8×10^3, and the test sample comprising the predetermined amount of the test compound, and DMSO without the test compound were added into each well of 96-well culture plate to a final volume of 100 μL in duplicate.
as §1, with “Co.),” for “Co.), and”, “with” for “with an”, “nm to calculate an infection” for “nm. A residual”, “the protozoa” for “L6 cells was calculated”, “ratio” for “ratio for L6 cells”, “infection” for “residual”
Growth-inhibiting ratio (%)=[1−(b−a)/(c−a)]×100 • a: Initial infection ratio; • b: Infection ratio of the test sample group; and • c: Infection ratio of the control group.
A selective toxicity coefficient, which is used as an index for the selective toxicity for the protozoa of African trypanosomiasis, was calculated by the following equation, and the pharmaceutical effect was determined.
Selective toxicity coefficient=(EC50 value of the test sample for rat L6 cell)/(EC50 value of the test sample for the protozoa of African typanosomiasis)

`Nc1nc(N)nc(Nc2ccc([As]3SCC(CO)S3)cc2)n1` (stereo not drawn) [Melarsoprol, reference compound] gave an EC50 at 72 h [1] of 7800 nM, a Selective toxicity ([2]; EC50 rat L6 cell / EC50 protozoa of African trypanosomiasis) of 1300 and an EC50 ([2]; Trypanosoma brucei, STIB900, 72 h, read-out: 50% growth-inhibiting concentration (nM) Trypanosoma brucei rhod.) of 6 nM.
